The values that follow come from ChEMBL document CHEMBL4842390, “Amino-Heterocycle Tetrahydroisoquinoline CXCR4 Antagonists with Improved ADME Profiles via Late-Stage Buchwald Couplings” (ACS Med Chem Lett, 2021).

The source made the active and inactive calls. The calls are words filed in the database; no cut-off is given here.

The nature of series [1]: Metabolic stability in mouse liver microsomes assessed as parent compound remaining incubated for 10 mins in presence of NADPH. Type of series: ADME, Microsome. To be noted: read-out: Stabilty.
Series [2] can be described thus: Permeability of the compound at pH 7.4 incubated for 4 hrs by PAMPA. Type of series: ADME. To be noted: read-out: permeability. A general note: The PAMPA barrier holds no transporters, so it reflects passive diffusion.
A further series has as its target Cytochrome P450 2C9 (Homo sapiens, UniProt P11712). Put plainly: Inhibition of CYP2C9 (unknown origin). The format is ADME.
The target in series [3] is C-X-C chemokine receptor type 4 (Homo sapiens, UniProt P61073). Put plainly: Antagonist activity at CXCR4 receptor in human CCRF-CEM cells assessed as inhibition of SDF-1alpha-induced calcium release preincubated for 25 mins followed by SDF-1alpha addition and monitered for 90 sec. Type of series: functional, cell-based.
Chain of C-X-C chemokine receptor type 4 (P61073 whole entry): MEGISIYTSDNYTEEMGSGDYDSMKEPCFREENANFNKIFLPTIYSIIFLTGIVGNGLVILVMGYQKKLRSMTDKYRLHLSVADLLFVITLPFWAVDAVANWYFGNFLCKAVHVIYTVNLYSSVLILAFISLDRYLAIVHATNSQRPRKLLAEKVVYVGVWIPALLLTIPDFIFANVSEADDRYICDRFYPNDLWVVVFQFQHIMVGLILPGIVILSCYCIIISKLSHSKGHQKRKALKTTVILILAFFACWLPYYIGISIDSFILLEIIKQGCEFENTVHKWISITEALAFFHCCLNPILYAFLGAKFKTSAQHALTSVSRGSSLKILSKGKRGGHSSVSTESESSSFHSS
A short description of series [4]: Metabolic stability in rat liver microsomes assessed as parent compound remaining incubated for 10 mins in presence of NADPH. To be noted: read-out: Stabilty. Type of series: ADME, Microsome. (In general: Liver microsomes are a subcellular fraction often used to study metabolism.)
In a further series the target is Cytochrome P450 2D6 (Homo sapiens, UniProt P10635). Nature of the series: Inhibition of human recombinant CYP2D6 expressed in insect cells using AMMC as substrate preincubated for 30 mins followed by NADPH regenerating system addition and measured after 45 mins by fluorescence based assay. Type of series: ADME.
Chain of Cytochrome P450 2D6 (P10635 whole entry): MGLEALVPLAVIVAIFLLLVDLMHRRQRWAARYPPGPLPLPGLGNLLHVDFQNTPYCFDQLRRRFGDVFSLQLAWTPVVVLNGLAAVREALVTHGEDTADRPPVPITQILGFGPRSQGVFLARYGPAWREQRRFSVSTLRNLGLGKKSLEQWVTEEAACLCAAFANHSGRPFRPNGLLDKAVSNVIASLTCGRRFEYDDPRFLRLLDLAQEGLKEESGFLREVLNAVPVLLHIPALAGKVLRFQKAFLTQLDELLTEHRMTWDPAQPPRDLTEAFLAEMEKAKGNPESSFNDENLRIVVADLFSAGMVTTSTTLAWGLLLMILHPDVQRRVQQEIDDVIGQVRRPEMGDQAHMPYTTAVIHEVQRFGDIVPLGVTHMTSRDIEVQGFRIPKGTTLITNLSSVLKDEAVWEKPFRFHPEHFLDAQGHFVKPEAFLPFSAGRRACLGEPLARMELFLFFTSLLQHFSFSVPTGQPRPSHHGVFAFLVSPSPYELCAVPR
A short description of another series: cells. To be noted: Homo sapiens, CCRF-CEM.
For another series, the target named is Cytochrome P450 3A4 (Homo sapiens, UniProt P08684). Put plainly: Inhibition of CYP3A4 (unknown origin). Type of series: ADME.
Chain of Cytochrome P450 3A4 (P08684 whole entry): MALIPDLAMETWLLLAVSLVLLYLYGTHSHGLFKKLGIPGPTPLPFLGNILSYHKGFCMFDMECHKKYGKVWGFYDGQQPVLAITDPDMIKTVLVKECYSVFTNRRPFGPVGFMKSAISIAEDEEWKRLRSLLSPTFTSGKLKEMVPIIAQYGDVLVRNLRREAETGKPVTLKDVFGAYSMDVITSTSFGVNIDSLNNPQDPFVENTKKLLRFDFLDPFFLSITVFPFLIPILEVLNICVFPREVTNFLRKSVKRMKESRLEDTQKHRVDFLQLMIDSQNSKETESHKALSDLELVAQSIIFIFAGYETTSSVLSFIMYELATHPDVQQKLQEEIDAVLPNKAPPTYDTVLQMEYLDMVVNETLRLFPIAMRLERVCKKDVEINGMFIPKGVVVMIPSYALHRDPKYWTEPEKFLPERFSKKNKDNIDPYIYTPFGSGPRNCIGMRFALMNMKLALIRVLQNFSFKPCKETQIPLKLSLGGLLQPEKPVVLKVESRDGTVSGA
The nature of series [5]: Metabolic stability in human liver microsomes assessed as parent compound remaining incubated for 10 mins in presence of NADPH. To be noted: read-out: Stabilty. The format is ADME, Microsome.
Series [6] in a line: Half life in CD-1 mouse at 30 mg/kg, po or at 3 mg/kg, iv by UPLC-MS/MS analysis. To be noted: in vivo.
Series [7] is described as follows: Volume of distribution in CD-1 mouse at 30 mg/kg, po or at 3 mg/kg, iv by UPLC-MS/MS analysis. The format is ADME, organism-based. To be noted: in vivo.
A short description of series [8]: Oral bioavailability in CD-1 mouse at 30 mg/kg measured upto 8 hrs by UPLC-MS/MS analysis. Type of series: ADME, organism-based. To be noted: in vivo.
Series [9] in a line: AUC (0 to 8 hrs) in CD-1 mouse at 30 mg/kg, po or at 3 mg/kg, iv measured up to 8 hrs by UPLC-MS/MS analysis. Also on record: dose 30 mg/kg, time <=8. Type of series: ADME, organism-based. To be noted: in vivo.
For series [10], the target named is T1, C-C chemokine receptor type 7 (Homo sapiens) (UniProt P32248).
T1 sequence (whole entry): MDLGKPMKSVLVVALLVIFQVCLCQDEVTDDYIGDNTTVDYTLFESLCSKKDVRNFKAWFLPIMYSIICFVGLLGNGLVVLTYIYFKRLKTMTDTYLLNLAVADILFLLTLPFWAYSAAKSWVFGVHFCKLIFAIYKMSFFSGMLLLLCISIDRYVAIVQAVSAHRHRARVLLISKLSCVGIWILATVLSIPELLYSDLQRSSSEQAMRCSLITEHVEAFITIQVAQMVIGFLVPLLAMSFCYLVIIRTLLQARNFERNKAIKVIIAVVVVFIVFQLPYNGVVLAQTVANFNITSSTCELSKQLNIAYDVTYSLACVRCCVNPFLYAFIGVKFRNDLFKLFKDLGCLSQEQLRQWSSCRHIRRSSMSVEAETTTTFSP
Nature of the series: Antagonist activity at CCR7 (unknown origin) assessed as inhibition of ligand-induced calcium flux measured upto 10 uM. The format is functional. To be noted: dose microM <=10. For orientation: A change in cytosolic calcium serves as a functional read-out for many receptors and channels.

The target in series [11] is T2, C-C chemokine receptor type 6 (Homo sapiens) (UniProt P51684).
T2 sequence (whole entry): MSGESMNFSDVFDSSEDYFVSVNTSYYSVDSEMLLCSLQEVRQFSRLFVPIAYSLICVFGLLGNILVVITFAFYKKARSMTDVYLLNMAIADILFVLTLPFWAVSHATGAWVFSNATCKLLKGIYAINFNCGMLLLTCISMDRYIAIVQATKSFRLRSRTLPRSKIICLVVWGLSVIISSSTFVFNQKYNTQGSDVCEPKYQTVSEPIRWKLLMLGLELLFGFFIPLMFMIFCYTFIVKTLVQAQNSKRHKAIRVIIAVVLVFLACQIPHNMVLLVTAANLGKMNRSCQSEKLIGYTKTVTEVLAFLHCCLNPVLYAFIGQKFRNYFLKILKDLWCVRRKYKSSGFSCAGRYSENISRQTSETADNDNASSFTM
Put plainly: Antagonist activity at CCR6 (unknown origin) assessed as inhibition of ligand-induced calcium flux measured upto 10 uM. Type of series: functional. To be noted: dose microM <=10.

Series [12] in a line: Oral bioavailability in CD1 mouse at 30 mg/kg measured after 8 hrs by LC-MS/MS analysis. To be noted: in vivo. The format is ADME, organism-based.
Series [13] deals with T3, C-C chemokine receptor type 4 (Homo sapiens) (UniProt P51679).
T3 sequence (whole entry): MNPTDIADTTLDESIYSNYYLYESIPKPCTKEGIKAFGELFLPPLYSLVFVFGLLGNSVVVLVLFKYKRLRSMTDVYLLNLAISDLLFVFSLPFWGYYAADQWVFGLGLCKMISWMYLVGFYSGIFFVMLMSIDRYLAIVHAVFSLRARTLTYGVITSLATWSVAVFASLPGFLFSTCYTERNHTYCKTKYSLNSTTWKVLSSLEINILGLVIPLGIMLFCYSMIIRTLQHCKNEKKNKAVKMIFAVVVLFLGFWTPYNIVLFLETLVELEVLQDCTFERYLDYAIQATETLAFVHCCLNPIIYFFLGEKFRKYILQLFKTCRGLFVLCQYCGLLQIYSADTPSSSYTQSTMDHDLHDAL
Nature of the series: Antagonist activity at CCR4 (unknown origin) assessed as inhibition of ligand-induced calcium flux measured upto 10 uM. To be noted: dose microM <=10. Type of series: functional.

The nature of series [14]: Clearance in CD-1 mouse at 30 mg/kg, po or at 3 mg/kg, iv by UPLC-MS/MS analysis. The format is ADME, organism-based. To be noted: in vivo.
Series [15] deals with Voltage-gated inwardly rectifying potassium channel KCNH2 (Homo sapiens, UniProt Q12809). Put plainly: Inhibition of human ERG by automated patch clamp method.
Chain of Voltage-gated inwardly rectifying potassium channel KCNH2 (Q12809 whole entry): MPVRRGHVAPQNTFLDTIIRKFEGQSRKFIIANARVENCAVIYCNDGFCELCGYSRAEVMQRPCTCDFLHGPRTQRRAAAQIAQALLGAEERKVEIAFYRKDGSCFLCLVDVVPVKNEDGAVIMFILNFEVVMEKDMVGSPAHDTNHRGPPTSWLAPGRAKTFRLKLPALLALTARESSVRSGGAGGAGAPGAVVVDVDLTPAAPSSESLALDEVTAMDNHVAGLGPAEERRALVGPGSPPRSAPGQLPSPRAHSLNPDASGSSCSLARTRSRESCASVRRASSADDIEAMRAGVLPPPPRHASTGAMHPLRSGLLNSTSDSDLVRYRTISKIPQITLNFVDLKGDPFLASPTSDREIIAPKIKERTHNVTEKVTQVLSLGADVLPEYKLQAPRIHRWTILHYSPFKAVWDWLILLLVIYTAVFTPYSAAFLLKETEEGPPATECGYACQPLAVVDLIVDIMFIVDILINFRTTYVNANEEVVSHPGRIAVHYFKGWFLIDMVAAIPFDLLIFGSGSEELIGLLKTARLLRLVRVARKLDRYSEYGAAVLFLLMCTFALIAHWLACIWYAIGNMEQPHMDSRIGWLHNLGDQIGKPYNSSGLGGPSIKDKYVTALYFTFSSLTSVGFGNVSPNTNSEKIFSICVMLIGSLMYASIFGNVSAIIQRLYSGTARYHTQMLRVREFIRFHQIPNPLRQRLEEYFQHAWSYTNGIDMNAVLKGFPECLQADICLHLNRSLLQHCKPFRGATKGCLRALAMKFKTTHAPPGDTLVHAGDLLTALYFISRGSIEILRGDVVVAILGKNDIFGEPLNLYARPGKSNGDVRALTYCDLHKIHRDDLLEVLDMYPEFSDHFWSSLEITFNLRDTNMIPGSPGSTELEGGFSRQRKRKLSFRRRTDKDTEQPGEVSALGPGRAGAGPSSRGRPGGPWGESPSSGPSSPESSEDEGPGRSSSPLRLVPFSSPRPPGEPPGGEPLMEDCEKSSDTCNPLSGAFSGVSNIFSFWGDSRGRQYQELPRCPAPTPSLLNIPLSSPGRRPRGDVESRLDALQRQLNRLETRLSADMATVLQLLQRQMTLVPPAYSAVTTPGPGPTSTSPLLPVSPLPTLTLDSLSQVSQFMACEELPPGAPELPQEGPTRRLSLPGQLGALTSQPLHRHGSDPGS
The target of series [16] is T4, C-X-C chemokine receptor type 3 (Homo sapiens) (UniProt P49682).
T4 sequence (whole entry): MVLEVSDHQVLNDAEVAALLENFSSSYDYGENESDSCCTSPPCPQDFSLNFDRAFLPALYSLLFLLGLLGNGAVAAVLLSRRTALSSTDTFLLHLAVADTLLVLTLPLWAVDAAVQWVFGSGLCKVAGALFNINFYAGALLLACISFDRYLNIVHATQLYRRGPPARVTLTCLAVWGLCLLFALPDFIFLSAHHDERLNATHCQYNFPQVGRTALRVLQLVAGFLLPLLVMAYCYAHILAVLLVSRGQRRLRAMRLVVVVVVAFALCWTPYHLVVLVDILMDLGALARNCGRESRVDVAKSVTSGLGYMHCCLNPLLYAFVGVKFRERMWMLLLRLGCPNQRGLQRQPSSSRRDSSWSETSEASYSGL
Put plainly: Antagonist activity at CXCR3 (unknown origin) assessed as inhibition of ligand-induced calcium flux measured upto 10 uM. Type of series: functional. To be noted: dose microM <=10.

For series [17], the target named is T5, C-X-C chemokine receptor type 1 (Homo sapiens) (UniProt P25024).
T5 sequence (whole entry): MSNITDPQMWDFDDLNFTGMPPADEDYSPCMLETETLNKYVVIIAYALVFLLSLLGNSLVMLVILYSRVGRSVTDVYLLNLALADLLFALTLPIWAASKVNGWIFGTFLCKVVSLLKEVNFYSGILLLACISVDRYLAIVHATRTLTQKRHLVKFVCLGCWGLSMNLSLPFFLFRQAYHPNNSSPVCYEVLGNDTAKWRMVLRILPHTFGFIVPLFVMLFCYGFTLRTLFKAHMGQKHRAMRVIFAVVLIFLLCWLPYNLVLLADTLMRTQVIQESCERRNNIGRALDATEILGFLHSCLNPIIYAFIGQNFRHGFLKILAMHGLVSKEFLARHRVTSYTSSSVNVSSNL
Nature of the series: Antagonist activity at CXCR1 (unknown origin) assessed as inhibition of ligand-induced calcium flux measured upto 10 uM. Type of series: functional. To be noted: dose microM <=10.

A short description of series [18]: Cmax in CD-1 mouse at 30 mg/kg, po or at 3 mg/kg, iv by UPLC-MS/MS analysis. To be noted: in vivo. Type of series: ADME, organism-based. Details: dose 30 mg/kg.
Series [19] in a line: C8h in CD-1 mouse at 30 mg/kg, po or at 3 mg/kg, iv measured up to 8 hrs by UPLC-MS/MS analysis. To be noted: in vivo.
For series [20], the target named is C-C chemokine receptor type 5 (Homo sapiens) (UniProt P51681). Put plainly: Antagonist activity at CCR5 (unknown origin) assessed as inhibition of ligand-induced calcium flux measured upto 10 uM. The format is functional. To be noted: dose microM <=10.
Chain of C-C chemokine receptor type 5 (Homo sapiens) (P51681 whole entry, looked up): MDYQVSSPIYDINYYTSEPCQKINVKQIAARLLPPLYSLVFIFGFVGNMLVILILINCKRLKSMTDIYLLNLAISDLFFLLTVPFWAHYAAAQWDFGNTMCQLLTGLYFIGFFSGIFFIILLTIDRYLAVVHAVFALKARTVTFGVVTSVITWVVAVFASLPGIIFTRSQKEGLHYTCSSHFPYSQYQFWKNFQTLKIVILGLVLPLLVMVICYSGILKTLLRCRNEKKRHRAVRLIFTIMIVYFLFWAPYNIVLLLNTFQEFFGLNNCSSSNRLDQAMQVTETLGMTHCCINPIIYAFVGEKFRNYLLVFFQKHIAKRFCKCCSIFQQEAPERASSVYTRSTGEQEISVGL
The nature of series [21]: AUC (0 to t) in CD-1 mouse at 30 mg/kg, po or at 3 mg/kg, iv measured after 8 hrs by LC-MS/MS analysis. The format is ADME, organism-based. Details: time 8 hrs, dose 30 mg/kg. To be noted: in vivo.
The nature of series [22]: Half life in CD1 mouse at 30 mg/kg, po or at 3 mg/kg, iv measured after 8 hrs by LC-MS/MS analysis. Type of series: ADME, organism-based. To be noted: in vivo.
The target in series [23] is T6, C-X-C chemokine receptor type 2 (Homo sapiens) (UniProt P25025).
T6 sequence (whole entry): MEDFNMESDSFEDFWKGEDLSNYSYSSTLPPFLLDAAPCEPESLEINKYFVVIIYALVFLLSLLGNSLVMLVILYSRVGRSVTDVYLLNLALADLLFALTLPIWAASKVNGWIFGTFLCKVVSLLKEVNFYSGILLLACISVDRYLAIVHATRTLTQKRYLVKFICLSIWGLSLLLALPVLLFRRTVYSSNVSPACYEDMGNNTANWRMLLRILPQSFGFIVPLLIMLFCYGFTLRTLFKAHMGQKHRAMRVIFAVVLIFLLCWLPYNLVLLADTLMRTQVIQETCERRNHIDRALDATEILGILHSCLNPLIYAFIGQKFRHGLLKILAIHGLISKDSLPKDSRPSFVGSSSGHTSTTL
Nature of the series: Antagonist activity at CXCR2 (unknown origin) assessed as inhibition of ligand-induced calcium flux measured upto 10 uM. Type of series: functional. To be noted: dose microM <=10.

For orientation: IC50 means the concentration that inhibits the measured activity by half. As a reminder, the half-life is how long it takes for the measured level to halve. The term bioavailability denotes dose-corrected exposure relative to a reference, in per cent. Lower therefore signals little systemic uptake. The AUC(0-t) is exposure summed from dosing to a finite time, without extrapolation to infinity. Low values mean less exposure, high ones more exposure. One may read the Cmax as the highest concentration seen after dosing.

Chain of Cytochrome P450 2C9 (P11712 whole entry): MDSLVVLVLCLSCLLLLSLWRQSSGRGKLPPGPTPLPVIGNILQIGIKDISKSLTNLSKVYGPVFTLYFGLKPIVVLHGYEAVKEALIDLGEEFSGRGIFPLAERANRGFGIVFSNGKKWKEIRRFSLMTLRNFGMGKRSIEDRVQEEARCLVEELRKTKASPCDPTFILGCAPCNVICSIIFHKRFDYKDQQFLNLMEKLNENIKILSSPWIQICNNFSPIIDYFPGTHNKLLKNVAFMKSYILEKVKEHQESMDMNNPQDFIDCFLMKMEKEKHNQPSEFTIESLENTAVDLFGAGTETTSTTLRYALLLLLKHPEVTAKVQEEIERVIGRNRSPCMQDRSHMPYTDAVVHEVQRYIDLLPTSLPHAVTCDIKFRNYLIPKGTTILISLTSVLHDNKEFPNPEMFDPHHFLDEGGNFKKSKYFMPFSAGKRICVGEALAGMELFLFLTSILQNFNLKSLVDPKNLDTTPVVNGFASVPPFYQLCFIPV
Description for cells: Antagonist activity at muscarinic acetylcholine receptor in human CCRF-CEM cells assessed as inhibition of acetylcholine-induced calcium release preincubated for 25 mins followed by acetylcholine addition and monitered for 90 sec

In the case of `CN(C)C1CCN(c2cccc3c2C[C@H](CN(C)[C@H]2CCCc4cccnc42)NC3)CC1`, the remaining at 10 min came out at 70.2% in series [1], 52.4% in series [4] and 78.4% in series [5]. Also, the Papp at 4 h in series [2] was found to be 4.4 ×10⁻⁶ cm/s. In addition, the IC50 against Cytochrome P450 2C9 was 6.67 µM; in [3], 0.0359 µM; at Cytochrome P450 2D6, above 20 µM; in “cells”, above 16.7 µM; at Cytochrome P450 3A4 it was above 20 µM.

Consider `NCCCCN(Cc1nc2ccccc2[nH]1)[C@H]1CCCc2cccnc21` [MAVORIXAFOR], for which, in [6], the half-life is 3.1 h. In addition, in [7], the Vd worked out at 32.2 L/kg. Also, the bioavailability in series [8] worked out at 2.4%. The AUC(0-t) in series [9] was 101 ng·h/mL.

For the compound `CN(C)C1CCN(c2cccc3c2C[C@H](CN(C)[C@H]2CCCc4cccnc42)NC3)C1` (single isomer, unassigned; 37), the results for the remaining at 10 min in series [1], in series [4] and in [5] were 18.5%, 4.55% and 67.5%, respectively. In series [2], the Papp at 4 h amounted to 1.6 ×10⁻⁶ cm/s. The IC50 in series [3] was 0.0109 µM; on Cytochrome P450 2D6 it was 15.4 µM; in “cells”, 12.3 µM; at Cytochrome P450 3A4, above 20 µM.

On to `CN1CCN(Nc2cccc3c2CC(CN(C)[C@H]2CCCc4cccnc42)NC3)CC1` (single isomer, unassigned), for which the remaining at 10 min in series [1] came out at 85.8%; in series [4], 21%; in series [5], 73.6%. Besides, in series [2], the Papp at 4 h was 23.5 ×10⁻⁶ cm/s. Besides, the outcome in [10], in series [11], in series [13], in [16], in series [17] and in series [20] was inactive. Besides, the result in series [23] was inactive. The same compound registered a Vd in [7] of 9.35 L/kg. Also, the bioavailability in series [12] was 24%. Further, the IC50 in series [3] is 0.0474 µM; in [15], 6.8 µM; at Cytochrome P450 2D6, above 20 µM; in the series “cells”, above 16.7 µM; against Cytochrome P450 3A4, above 20 µM. Further, in series [14], the clearance is 30.5 mL/min/kg. Also, in series [18], the Cmax turned out to be 791 ng/mL. Besides, the C8h at 8 h in series [19] came to 297 ng/mL. Further, the AUC(0-t) at 8 h in [21] was found to be 4000 ng·h/mL. Also, the half-life in series [22] was 3.5 h.
